Measurements taken from PubChem BioAssay (NCI).
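GI50 marks 50% less growth. The concentration for full growth arrest is given as TGI.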

Legend:
Experiment in all cases: growth of human tumour cells (NCI), 384-well format
786-0 renal = test system: 786-0 renal
A498 renal = test system: A498 renal
A549 NSCLC = test system: A549 NSCLC
ACHN renal = test system: ACHN renal
BT-549 breast = test system: BT-549 breast
CAKI-1 renal = test system: CAKI-1 renal
CCRF-CEM leukemia = test system: CCRF-CEM leukemia
COLO 205 colon = test system: COLO 205 colon
DU-145 prostate = test system: DU-145 prostate
EKVX NSCLC = test system: EKVX NSCLC
HCC-2998 colon = test system: HCC-2998 colon
HCT-15 colon = test system: HCT-15 colon
HL-60(TB) leukemia = test system: HL-60(TB) leukemia
HOP-62 NSCLC = test system: HOP-62 NSCLC
HOP-92 NSCLC = test system: HOP-92 NSCLC
HS 578T breast = test system: HS 578T breast
HT29 colon = test system: HT29 colon
IGROV1 ovarian = test system: IGROV1 ovarian
K-562 leukemia = test system: K-562 leukemia
KM12 colon = test system: KM12 colon
LOX IMVI melanoma = test system: LOX IMVI melanoma
M14 melanoma = test system: M14 melanoma
MALME-3M melanoma = test system: MALME-3M melanoma
MCF7 breast = test system: MCF7 breast
MDA-MB-231 breast = test system: MDA-MB-231 breast
MDA-MB-435 melanoma = test system: MDA-MB-435 melanoma
MDA-MB-468 breast = test system: MDA-MB-468 breast
MOLT-4 leukemia = test system: MOLT-4 leukemia
NCI-H226 lung = test system: NCI-H226 lung
NCI-H23 lung = test system: NCI-H23 lung
NCI-H322M lung = test system: NCI-H322M lung
NCI-H460 NSCLC = test system: NCI-H460 NSCLC
NCI-H522 lung = test system: NCI-H522 lung
NCI/ADR-RES ovarian = test system: NCI/ADR-RES ovarian
OVCAR-3 ovarian = test system: OVCAR-3 ovarian
OVCAR-4 ovarian = test system: OVCAR-4 ovarian
OVCAR-5 ovarian = test system: OVCAR-5 ovarian
OVCAR-8 ovarian = test system: OVCAR-8 ovarian
PC-3 prostate = test system: PC-3 prostate
RPMI-8226 leukemia = test system: RPMI-8226 leukemia
RXF 393 renal = test system: RXF 393 renal
SF-268 CNS = test system: SF-268 CNS
SF-295 CNS = test system: SF-295 CNS
SF-539 CNS = test system: SF-539 CNS
SK-MEL-28 melanoma = test system: SK-MEL-28 melanoma
SK-MEL-5 melanoma = test system: SK-MEL-5 melanoma
SK-OV-3 ovarian = test system: SK-OV-3 ovarian
SN12C renal = test system: SN12C renal
SNB-19 CNS = test system: SNB-19 CNS
SNB-75 CNS = test system: SNB-75 CNS
SR leukemia = test system: SR leukemia
SW-620 colon = test system: SW-620 colon
T-47D breast = test system: T-47D breast
TK-10 renal = test system: TK-10 renal
U251 glioblastoma = test system: U251 glioblastoma
UACC-257 melanoma = test system: UACC-257 melanoma
UACC-62 melanoma = test system: UACC-62 melanoma
UO-31 renal = test system: UO-31 renal

Cc1ccc(NC(=O)c2ccc(CN3CCN(C)CC3)cc2)cc1Nc1nc(-c2cccnc2)cs1
GI50 ([…]-0 renal): 1.79 µM
TGI (786-0 renal): 3.66 µM
GI50 (A498 renal): 2.42 µM
TGI (A498 renal): 5.52 µM
GI50 (A549 NSCLC): 5.25 µM
TGI (A549 NSCLC): 17.3 µM
GI50 (ACHN renal): 3.31 µM
TGI (ACHN renal): 9.96 µM
GI50 (BT-549 breast): 4.12 µM
TGI (BT-549 breast): 14.4 µM
GI50 (CAKI-1 renal): 3.9 µM
TGI (CAKI-1 renal): 13 µM
GI50 (CCRF-CEM leukemia): 1.54 µM
TGI (CCRF-CEM leukemia): 3.09 µM
GI50 (COLO 205 colon): 3.64 µM
TGI (COLO 205 colon): 11 µM
GI50 (DU-145 prostate): 12 µM
TGI (DU-145 prostate): 24.4 µM
GI50 (EKVX NSCLC): 4.22 µM
TGI (EKVX NSCLC): 15.4 µM
GI50 (HCC-2998 colon): 1.84 µM
TGI (HCC-2998 colon): 3.68 µM
GI50 (HCT-15 colon): 1.69 µM
TGI (HCT-15 colon): 3.2 µM
GI50 (HL-60(TB) leukemia): 1.74 µM
TGI (HL-60(TB) leukemia): 3.16 µM
GI50 (HOP-62 NSCLC): 4.31 µM
TGI (HOP-62 NSCLC): 15.4 µM
GI50 (HOP-92 NSCLC): 3.33 µM
TGI (HOP-92 NSCLC): 12.2 µM
GI50 (HS 578T breast): 1.73 µM
TGI (HS 578T breast): 3.87 µM
GI50 (HT29 colon): 1.72 µM
TGI (HT29 colon): 3.32 µM
GI50 (IGROV1 ovarian): 11.2 µM
TGI (IGROV1 ovarian): 23.3 µM
GI50 (K-562 leukemia): 0.283 µM
TGI (K-562 leukemia): 1.12 µM
GI50 (KM12 colon): 3.11 µM
TGI (KM12 colon): 10.3 µM
GI50 (LOX IMVI melanoma): 1.91 µM
TGI (LOX IMVI melanoma): 3.52 µM
GI50 (M14 melanoma): 2.07 µM
TGI (M14 melanoma): 4.11 µM
GI50 (MALME-3M melanoma): 1.64 µM
TGI (MALME-3M melanoma): 3.16 µM
GI50 (MCF7 breast): 1.94 µM
TGI (MCF7 breast): 5.95 µM
GI50 (MDA-MB-231 breast): 3.38 µM
TGI (MDA-MB-231 breast): 11.7 µM
GI50 (MDA-MB-435 melanoma): 6.47 µM
TGI (MDA-MB-435 melanoma): 18.9 µM
GI50 (MDA-MB-468 breast): 1.65 µM
TGI (MDA-MB-468 breast): 3.77 µM
GI50 (MOLT-4 leukemia): 1.55 µM
TGI (MOLT-4 leukemia): 2.95 µM
GI50 (NCI-H226 lung): 3.84 µM
TGI (NCI-H226 lung): 15.9 µM
GI50 (NCI-H23 lung): 2.9 µM
TGI (NCI-H23 lung): 11.9 µM
GI50 (NCI-H322M lung): 3.39 µM
TGI (NCI-H322M lung): 11.4 µM
GI50 (NCI-H460 NSCLC): 2.16 µM
TGI (NCI-H460 NSCLC): 4.71 µM
GI50 (NCI-H522 lung): 3.83 µM
TGI (NCI-H522 lung): 13.9 µM
GI50 (NCI/ADR-RES ovarian): 5.47 µM
TGI (NCI/ADR-RES ovarian): 16.6 µM
GI50 (OVCAR-3 ovarian): 2.24 µM
TGI (OVCAR-3 ovarian): 5.16 µM
GI50 (OVCAR-4 ovarian): 2.59 µM
TGI (OVCAR-4 ovarian): 11.1 µM
GI50 (OVCAR-5 ovarian): 3.4 µM
TGI (OVCAR-5 ovarian): 9.15 µM
GI50 (OVCAR-8 ovarian): 3.54 µM
TGI (OVCAR-8 ovarian): 12.5 µM
GI50 (PC-3 prostate): 3.25 µM
TGI (PC-3 prostate): 9.72 µM
GI50 (RPMI-8226 leukemia): 1.42 µM
TGI (RPMI-8226 leukemia): 2.78 µM
GI50 (RXF 393 renal): 1.54 µM
TGI (RXF 393 renal): 2.98 µM
GI50 (SF-268 CNS): 4.08 µM
TGI (SF-268 CNS): 14 µM
GI50 (SF-295 CNS): 1.84 µM
TGI (SF-295 CNS): 3.32 µM
GI50 (SF-539 CNS): 1.5 µM
TGI (SF-539 CNS): 3.19 µM
GI50 (SK-MEL-28 melanoma): 1.91 µM
TGI (SK-MEL-28 melanoma): 3.42 µM
GI50 (SK-MEL-5 melanoma): 1.55 µM
TGI (SK-MEL-5 melanoma): 3.15 µM
GI50 (SK-OV-3 ovarian): 3.89 µM
TGI (SK-OV-3 ovarian): 12.3 µM
GI50 (SN12C renal): 12.7 µM
TGI (SN12C renal): 25.3 µM
GI50 (SNB-19 CNS): 10.6 µM
TGI (SNB-19 CNS): 22.5 µM
GI50 (SNB-75 CNS): 3.7 µM
TGI (SNB-75 CNS): 12 µM
GI50 (SR leukemia): 1.53 µM
TGI (SR leukemia): 2.87 µM
GI50 (SW-620 colon): 2.17 µM
TGI (SW-620 colon): 5.13 µM
GI50 (T-47D breast): 1.76 µM
TGI (T-47D breast): 5.2 µM
GI50 (TK-10 renal): 12.2 µM
TGI (TK-10 renal): 24.7 µM
GI50 (U251 glioblastoma): 2.36 µM
TGI (U251 glioblastoma): 5.39 µM
GI50 (UACC-257 melanoma): 1.82 µM
TGI (UACC-257 melanoma): 3.37 µM
GI50 (UACC-62 melanoma): 1.75 µM
TGI (UACC-62 melanoma): 3.64 µM
GI50 (UO-31 renal): 5.43 µM
TGI (UO-31 renal): 17.4 µM
